Numbers after ± are expanded uncertainties.
Settings: for vapor or sublimation pressure: Liquid, Closed cell (Static) method; for Glass transition temperature: DTA

SMILES: O [water]
- vapor or sublimation pressure (313.85 K): 8.1 ± 3.1 kPa
- vapor or sublimation pressure (318.65 K): 10.4 ± 3.2 kPa
- vapor or sublimation pressure (323.45 K): 13.2 ± 3.3 kPa
- vapor or sublimation pressure (328.35 K): 16.5 ± 3.3 kPa
- vapor or sublimation pressure (333.35 K): 20.1 ± 3.5 kPa
- vapor or sublimation pressure (338.15 K): 24.9 ± 3.7 kPa
- vapor or sublimation pressure (343.05 K): 30.6 ± 3.8 kPa

SMILES: CCCCn1cc[n+](C)c1.[I-] [1-butyl-3-methylimidazolium iodide]
- Glass transition temperature: -62.0 ± 3 °C

SMILES: CCOS(=O)(=O)[O-].CCn1cc[n+](C)c1 [1-ethyl-3-methylimidazolium ethyl sulfate]
- Glass transition temperature: -86.0 ± 3 °C

SMILES: CCCCn1cc[n+](C)c1.N#C[S-] [1-butyl-3-methylimidazolium thiocyanate]
- Glass transition temperature: -89.0 ± 3 °C

SMILES: CCCCn1cc[n+](C)c1.F[B-](F)(F)F [1-butyl-3-methylimidazolium tetrafluoroborate]
- Glass transition temperature: -85.0 ± 3 °C
